Laboratory results published in patent US20230293530A1, “AGENTS FOR SENSITIZING SOLID TUMORS TO TREATMENT” (Yeda Research and Development Co. Ltd., priority 2020, published 2023).

Tested on: 4T1 breast cancer cells
Test: Nucleotide levels by LC-MS in 4T1 cells with or without mizoribine (or L-Name)
Assay type: cell-based, murine
Conditions: 300 µM mizoribine, 24 h
Method: B) The purine/pyrimidine ratio is increased upon glucose deprivation in murine breast cancer cells. 4T1 cells were grown in the absence of glucose for 24h (baseline) and 48h and quantified by liquid chromatography-mass spectrometry (LC-MS). Nucleotide levels were measured in µg/ml and corrected for protein concentration. Purine/pyrimidine ratio was calculated by dividing (AMP+GMP) by (UMP+CMP) relative concentrations. C) ASS1 inhibition decreases the purine/pyrimidine ration under glucose deprivation. 4T1 cells were grown in the presence or absence of glucose for 48 h and analysed as in 1B. […] Cells were grown and treated as in 5B. […] 4T1 cells were grown either with or without 300 µM mizoribine for 24 h. Nucleotide levels were measured by LC-MS. […] Each experiment was conducted with biological and technical replicates and repeated at least three times. G) A549 cells were grown for 48 hr in control medium or supplemented with 1.2 µM Methotrexate (Holland-Moran). Nucleotide levels were measured as described below by LC-MS. Purine/pyrimidine ratio was calculated by dividing (AMP+GMP+ATP+GTP) concentration by (UMP+CMP+TMP+UTP+CTP+TTP) concentration before and after methotrexate. All error bars represent SER. *P<0.05, **P<0.01. Each experiment was conducted with biological and technical replicates and repeated at least three times.
A) Purine/pyrimidine ratio is increased upon nutrient deprivation in […] colon cancer cells. MC38 cells were grown in either regular medium or in medium without glucose for 24 h. Nucleotide levels were measured by LC-MS. Purine/pyrimidine ratio was calculated by dividing (AMP+GMP) AUC by (UMP+CMP) AUC. B) 4T1 cells with and without shASS1 were grown in glucose free medium either supplemented or not with 10 mM L-Name for 48 hrs. Nucleotide levels were measured by LC-MS. Purine/pyrimidine ratio was calculated by dividing the sum levels of (AMP+GMP) by the sum levels of (UMP+CMP+TMP). […] MC38 cells were grown either with or without 300 µM mizoribine for 24 h. Nucleotide levels were measured by LC-MS. […] 4T1 (left panel) and MC38 cells (right panel) were grown for 24 h with or without 300 µM mizoribine. Cell viability was measured by crystal violet staining. Each experiment was conducted with biological and technical replicates and repeated at least three times. All error bars represent SER. * P<0.05, ** denotes P<0.01, ***P<0.001.
LC-MS analysis: The LC-MS/MS instrument consisting of an Acquity I-class UPLC system (Waters) and Xevo TQ-S triple quadrupole mass spectrometer (Waters), equipped with an electrospray ion source, and operated in positive ion mode was used for analysis of nucleoside monophosphates. MassLynx and TargetLynx software (version 4.1, Waters) were applied for the acquisition and analysis of data. Chromatographic separation was done on a 100 mm × 2.1 mm internal diameter, 1.8-µm UPLC HSS T3 column equipped with 50 mm × 2.1 mm internal diameter, 1.8-µm UPLC HSS T3 pre-column (both Waters Acquity) with mobile phases A (10 mM ammonium acetate and 5 mM ammonium hydrocarbonate buffer, pH 7.65 adjusted with 10% acetic acid) and B (acetonitrile) at a flow rate of 0.3 mL min-1 and column temperature 25° C. A gradient was used as follows: for 0-3 min the column was held at 0.2% B, then 3-3.5 min a linear increase to 100% B, 3.5-4.0 min held at 100% B, 4.0-4.5 min back to 0.2% B and equilibration at 0.2% B for 2.5 min. […] Nucleotide concentration was calculated using a standard curve of the relevant nucleotide concentration in each sample. […]

[1] = corrected for protein concentration

## NC(=O)c1ncn([C@@H]2O[C@H](CO)[C@@H](O)[C@H]2O)c1O [Mizoribine, mizoribine]
  purine/pyrimidine ratio (AMP+GMP)/(UMP+CMP): decreased purine/pyrimidine ratio
[1]
  AMP level, Mizoribine treatment: 483.2 µg/ml/ pt
  CMP level, Mizoribine treatment: 7.3 µg/ml/ pt
  GMP level, Mizoribine treatment: 28.46 µg/ml/ pt
  UMP level, Mizoribine treatment: 38.39 µg/ml/ pt
